Reference: patent US8946268B2, “Modulators of HEC1 activity and methods therefor” (Taivex Therapeutics, Inc., priority 2010, dated 2015)
“And” between values parts separate entries of the source, which are not always exact repeats. Identical values can stand only once. Like-named read-outs stand apart in the source and are kept apart here. Blank lines part the entries; values can stand above or below the molecule they belong to.

Tests used:
[1] = Pharmacokinetics in rats after i.v. injection; format: in vivo, SD rat
Method: (§1) Bioavailability: Selected compounds were administered to rats per os or via injection following well known procedures.

[2] = Pharmacokinetics in rats after oral administration; format: in vivo, SD rat; conditions: for MRT inf: read-out: MRT0-inf
Method: as §1

MDA-MB-231 = assay: Antiproliferative activity (MTS assay), MDA-MB-231; format: cell-based; conditions: Homo sapiens, MDA-MB-231, 96 h, MDA-MB-231 cells
How it was run: (§2)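 Cells were dosed in triplicate after overnight attachment and incubated 96 h at 37 °C, with DMSO controls. Viability was read by MTS absorbance. Values come from concentration-response curves by linear regression, with GI50 corrected for time-zero cell count as [1−(T−T0)/(C−T0)]×100.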

MDA-MB-468 = assay: Antiproliferative activity (MTS assay), MDA-MB-468; format: cell-based; conditions: Homo sapiens, MDA-MB-468, 96 h, MDA-MB-468 cells
How it was run: as §2

Hela = assay: Antiproliferative activity (MTS assay), Hela; format: cell-based; conditions: Homo sapiens, HeLa, 96 h, Hela cells
How it was run: as §2

K562 = assay: Antiproliferative activity (MTS assay), K562; format: cell-based; conditions: Homo sapiens, K562, 96 h, K562 cells
How it was run: as §2

[3] = Combination of Hec1 inhibitors with chemotherapeutic inhibitors; conditions: preliminary data
[4] = compound 42 i.v., SD rat, individual rats No. 1-3
[5] = compound 42 oral, SD rat, individual rats No. 1-3
[6] = i.v. 2 mg/kg, SD rat, individual rats No. 1-3, 2 mg/kg
[7] = Sprague-Dawley, rat, serum, po, 20 mg/kg, oral 20 mg/kg, 1% methyl-cellulose, SD rat, Mean
[8] = Sprague-Dawley, rat, serum, po, 20 mg/kg, oral 20 mg/kg, SD rat, individual rats No. 1-3
[9] = oral 20 mg/kg, SD rat, individual rats No. 1-3, 20 mg/kg
[10] = compound 95 i.v., SD rat, individual rats No. 1-3
[11] = compound 95 oral, SD rat, individual rats No. 1-3

C0 ([1]; Sprague-Dawley, rat, serum, iv, 2 mg/kg, compound 42 i.v., SD rat, individual rats No. 1-3, read-out: C0): 11500 ng/mL
MRT ([1]; Sprague-Dawley, rat, serum, iv, 2 mg/kg, compound 42 i.v., SD rat, individual rats No. 1-3, read-out: MRT): 1.3 h
half-life ([1]; Sprague-Dawley, rat, serum, iv, 2 mg/kg, compound 42 i.v., formulation and route otherwise identical to compound 82, SD rat, Mean): 1.52 h
C0 ([1]; Sprague-Dawley, rat, serum, iv, 2 mg/kg, compound 42 i.v., formulation and route otherwise identical to compound 82, SD rat, Mean, read-out: C0): 11500 ng/mL
MRT ([1]; Sprague-Dawley, rat, serum, iv, 2 mg/kg, compound 42 i.v., formulation and route otherwise identical to compound 82, SD rat, Mean, read-out: MRT): 1.26 h
C0 [1, 4]: 11344 ng/mL and 11625 ng/mL
MRT [1, 4]: 1.20 h and 1.28 h
T1/2 [1, 4]: 1.40 h and 0.99 h and 2.16 h
half-life ([2]; Sprague-Dawley, rat, serum, po, 20 mg/kg, compound 42 oral, SD rat, individual rats No. 1-3): 3.28 h
MRT ([2]; Sprague-Dawley, rat, serum, po, 20 mg/kg, compound 42 oral, SD rat, individual rats No. 1-3, read-out: MRT): 3.46 h
Tmax ([2]; Sprague-Dawley, rat, serum, po, 20 mg/kg, compound 42 oral, SD rat, individual rats No. 1-3, read-out: Tmax): 1.5 h
half-life ([2]; Sprague-Dawley, rat, serum, po, 20 mg/kg, compound 42 oral, formulation and route otherwise identical to compound 82, SD rat, Mean): 3.18 h
MRT ([2]; Sprague-Dawley, rat, serum, po, 20 mg/kg, compound 42 oral, formulation and route otherwise identical to compound 82, SD rat, Mean, read-out: MRT): 3.36 h
Tmax ([2]; Sprague-Dawley, rat, serum, po, 20 mg/kg, compound 42 oral, formulation and route otherwise identical to compound 82, SD rat, Mean, read-out: Tmax): 1.33 h
MRT [2, 5]: 3.78 h and 2.83 h
T1/2 [2, 5]: 3.30 h and 2.97 h
Tmax [2, 5]: 1 h
Structure (SMILES): COc1cc(C)c(-c2csc(NC(=O)c3ccncc3)n2)c(C)c1 [Compound 42]

half-life ([1]; Sprague-Dawley, rat, serum, iv, 2 mg/kg, i.v. 2 mg/kg, 5% DMSO, 10% Cremophor, 85% WFI, SD rat, Mean): 5.14 h
C0 ([1]; Sprague-Dawley, rat, serum, iv, 2 mg/kg, i.v. 2 mg/kg, 5% DMSO, 10% Cremophor, 85% WFI, SD rat, Mean, read-out: C0): 7020 ng/mL
MRT inf ([1]; Sprague-Dawley, rat, serum, iv, 2 mg/kg, i.v. 2 mg/kg, 5% DMSO, 10% Cremophor, 85% WFI, SD rat, Mean, read-out: MRT0-inf): 6.46 h
C0 ([1]; Sprague-Dawley, rat, serum, iv, 2 mg/kg, i.v. 2 mg/kg, SD rat, individual rats No. 1-3, read-out: C0): 8180 ng/mL
C0 [1, 6]: 5590 ng/mL and 7282 ng/mL
MRT0-inf [1, 6]: 8.80 h and 3.36 h and 7.22 h
T1/2 [1, 6]: 6.85 h and 2.79 h and 5.78 h
half-life [2, 7]: 4.41 h
MRT inf [2, 7]: 7.73 h
Tmax ([2]; Sprague-Dawley, rat, serum, po, 20 mg/kg, oral 20 mg/kg, 1% methyl-cellulose, SD rat, Mean, read-out: Tmax): 4 h
half-life [2, 8]: 4.53 h
MRT inf [2, 8]: 7.71 h
Tmax ([2]; Sprague-Dawley, rat, serum, po, 20 mg/kg, oral 20 mg/kg, SD rat, individual rats No. 1-3, read-out: Tmax): 4 h
MRT0-inf [2, 9]: 5.76 h and 9.72 h
T1/2 [2, 9]: 2.94 h and 5.76 h
Structure (SMILES): Cc1cc(OC(C)C)cc(C)c1-c1csc(NC(=O)c2ccncc2)n1 [Compound 82]

IC50 (MDA-MB-231): 30 nM
IC50 (MDA-MB-468): 40 nM
MRT ([1]; Sprague-Dawley, rat, serum, iv, 2 mg/kg, compound 95 i.v., SD rat, individual rats No. 1-3, read-out: MRT): 131 h
half-life ([1]; Sprague-Dawley, rat, serum, iv, 2 mg/kg, compound 95 i.v., formulation and route otherwise identical to compound 82, SD rat, Mean): 7.36 h
C0 ([1]; Sprague-Dawley, rat, serum, iv, 2 mg/kg, compound 95 i.v., formulation and route otherwise identical to compound 82, SD rat, Mean, read-out: C0): 3670 ng/mL
MRT ([1]; Sprague-Dawley, rat, serum, iv, 2 mg/kg, compound 95 i.v., formulation and route otherwise identical to compound 82, SD rat, Mean, read-out: MRT): 143 h
C0 [1, 10]: 2519 ng/mL and 3144 ng/mL and 5356 ng/mL
MRT [1, 10]: 189 h and 108 h
MRT ([2]; SD, rat, serum, po, 20 mg/kg, compound 95 oral, SD rat, individual rats No. 1-3, read-out: MRT): 4.4 h
half-life ([2]; SD, rat, serum, po, compound 95 oral, formulation and route otherwise identical to compound 82, SD rat, Mean): 10.9 h
MRT ([2]; SD, rat, serum, po, compound 95 oral, formulation and route otherwise identical to compound 82, SD rat, Mean, read-out: MRT): 4.24 h
Tmax ([2]; SD, rat, serum, po, compound 95 oral, formulation and route otherwise identical to compound 82, SD rat, Mean, read-out: Tmax): 3 h
half-life ([2]; Sprague-Dawley, rat, serum, po, 20 mg/kg, compound 95 oral, SD rat, individual rats No. 1-3): 9.96 h
MRT [2, 11]: 4.38 h and 3.92 h
T1/2 [2, 11]: 12.86 h and 9.75 h
Tmax [2, 11]: 4.00 h and 1.00 h
IC50 (Hela): 50 nM
IC50 (K562): 30 nM
Structure (SMILES): COc1ccc(Oc2cc(C)c(-c3csc(NC(=O)c4ccncc4)n3)c(C)c2)cc1 [Compound 95]

Structure (SMILES): CC(=O)O[C@H]1C(=O)[C@@]2(C)[C@H]([C@H](OC(=O)c3ccccc3)[C@]3(O)C[C@H](OC(=O)[C@H](O)[C@@H](NC(=O)c4ccccc4)c4ccccc4)C(C)=C1C3(C)C)[C@]1(OC(C)=O)CO[C@@H]1C[C@@H]2O [Taxol]
effect in combination of Hec1 inhibitors with chemotherapeutic inhibitors [3]: synergistic effect

Structure (SMILES): COc1cccc2c1C(=O)c1c(O)c3c(c(O)c1C2=O)C[C@@](O)(C(=O)CO)C[C@@H]3O[C@H]1C[C@H](N)[C@H](O)[C@H](C)O1 [doxorubicin]
effect in combination of Hec1 inhibitors with chemotherapeutic inhibitors [3]: at most additive effect

Structure (SMILES): CC[C@]1(O)C[C@@H]2CN(CCc3c([nH]c4ccccc34)[C@@](C(=O)OC)(c3cc4c(cc3OC)N(C)[C@H]3[C@@](O)(C(=O)OC)[C@H](OC(C)=O)[C@]5(CC)C=CCN6CC[C@]43[C@@H]65)C2)C1 [vinblastine]
effect in combination of Hec1 inhibitors with chemotherapeutic inhibitors [3]: synergistic effect

Structure (SMILES): CC[C@]1(O)C[C@H]2CN(CCc3c([nH]c4ccccc34)[C@@](C(=O)OC)(c3cc4c(cc3OC)N(C=O)[C@H]3[C@@](O)(C(=O)OC)[C@H](OC(C)=O)[C@]5(CC)C=CCN6CC[C@]43[C@@H]65)C2)C1 [vincristine]
effect in combination of Hec1 inhibitors with chemotherapeutic inhibitors [3]: synergistic effect
